# According to patent US20130324520A1, “RXRG MODULATORS FOR THE TREATMENT OF CANCER” (SLOAN-KETTERING INSTITUTE FOR CANCER RESEARCH, priority 2011, published 2013):
# Target: RXRG in HCT116 (Homo sapiens, UniProt P48443)
# Method: Colon cancer or lung cancer cells were passaged to dishes with coverslips, and incubated in a humidified incubator at 5% CO2 and 37° C. for 1-2 days. The medium was removed and the cells fixed in 4% PFA/PBS for 5 min, gently rinsed with 0.15 M NaCl/20 mM Tris (pH 8.0; TBS), dried, and stored at −20° C. […] After treatment of RXRG ligands or RXRG knockdown, retinoblastoma cells were spread on poly-L-lysine coated slides with medium, and incubated for 3-4 hours before fixation.
# Staining with mouse antibodies: Cells were treated with 1 mM EDTA/PBS for 5 min at room temperature and, washed with PBS. […]
# Co-staining analyses with other antibodies: On completing the first staining reaction as described above, cells were incubated in block 1 for 20 min, incubated overnight with primary antibody in block 1, washed in PBS, incubated for 30 min in block 1 with Cy3 or Cy5 conjugated secondary antibody, and washed in PBS. […] Mounting Media (Vector Labs), and analyzed by inverted immunofluorescent microscopy (Axioplan2 Imaging, Carl Zeiss MicroImaging, LLC).
# Sequence of RXRG in HCT116 (P48443 whole entry): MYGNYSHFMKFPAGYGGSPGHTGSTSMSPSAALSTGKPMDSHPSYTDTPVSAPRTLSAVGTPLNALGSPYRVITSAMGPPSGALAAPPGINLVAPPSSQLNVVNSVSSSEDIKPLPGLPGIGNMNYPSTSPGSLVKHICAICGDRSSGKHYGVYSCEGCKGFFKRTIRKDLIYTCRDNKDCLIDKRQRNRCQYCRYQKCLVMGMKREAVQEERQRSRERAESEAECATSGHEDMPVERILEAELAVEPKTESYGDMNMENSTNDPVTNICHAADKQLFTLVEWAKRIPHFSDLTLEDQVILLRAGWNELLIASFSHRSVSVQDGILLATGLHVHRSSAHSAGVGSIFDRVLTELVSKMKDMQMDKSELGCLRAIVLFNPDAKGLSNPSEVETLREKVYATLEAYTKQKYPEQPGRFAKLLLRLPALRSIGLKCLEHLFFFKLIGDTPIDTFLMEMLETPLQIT
smiles,measurement,value
C=C(c1ccc(C(=O)O)cc1)c1cc2c(cc1C)C(C)(C)CCC2(C)C [Bexarotene],RXRG localisation,RXRG cluster formation and nucleolar translocation
